Measurements from patent US20080139649A1, “Fatty Acid-Benzenediol Derivatives and Methods of Making and Using Thereof” (priority 2005, published 2008).

Test: Solubility of CoQ10 in fish oil and fish oil concentrates under different conditions and time of storage
Assay type: physicochemical
Conditions: for Solubility of CoQ10 in 1812TG, confirmed solubility / Solubility of CoQ10 in 4020EE, confirmed solubility: heating prior storage
Excerpt: CoQ10 was solubilized in 0355 EE (fish oil concentrate in ethylester form containing 3% EPA and 55% DHA), 4020EE (fish oil concentrate in ethylester form containing 40% EPA and 20% DHA) and 1812TG (purified fish oil containing 18% EPA and 12% of DHA) and the final solubility was examined under different conditions and time of storage. All of these starting oils were manufactured by Ocean Nutrition Canada, Mulgrave, NS).

Solubility of CoQ10 in 0355EE, confirmed solubility (0355EE (ethylester concentrate, 3% EPA, 55% DHA), solubility at RT, no heating prior storage): 6.6 %, w/w
Solubility of CoQ10 in 0355EE, confirmed solubility (0355EE, solubility at 50° C.): 27%, w/w
Solubility of CoQ10 in 0355EE, confirmed solubility (0355EE, storage at 4° C. (line after solubility at 50° C.)): 3.2%, w/w
Solubility of CoQ10 in 0355EE, confirmed solubility (0355EE, storage at 4° C. for 24 h, no heating prior storage): 2.5 %, w/w
Solubility of CoQ10 in 1812TG, confirmed solubility (1812TG (purified fish oil, 18% EPA, 12% DHA), solubility at 50° C.): 11 %, w/w
Solubility of CoQ10 in 1812TG, confirmed solubility (1812TG, storage at 4° C.): <2.9 %, w/w
Solubility of CoQ10 in 4020EE, confirmed solubility (4020EE (ethylester concentrate, 40% EPA, 20% DHA), solubility at 50° C.): 9 %, w/w
Solubility of CoQ10 in 4020EE, confirmed solubility (4020EE, storage at 4° C.): 5.7 %, w/w
SMILES: COC1=C(OC)C(=O)C(C/C=C(\C)CC/C=C(\C)CC/C=C(\C)CC/C=C(\C)CC/C=C(\C)CC/C=C(\C)CC/C=C(\C)CC/C=C(\C)CC/C=C(\C)CCC=C(C)C)=C(C)C1=O [CoQ10ox, 2,3-dimethyoxy-5-methyl-6-decaprenyl-1,4-benzoquinone]
